# Measured values as given in PMC12254266, “Multicolored sequential resonance energy transfer for detection of simultaneous ligand binding at G protein-coupled receptors” (Nature Communications, 2025).
# Several values for one entry are separate records, joined by “and”; a condition that tells them apart may be missing. Equal values may be shown once.
# Key:
# Nluc-FFA1 [1] = target: T1, Nluc-FFA1 (Homo sapiens, UniProt O14842); assay: NanoBRET binding (saturation, competition, kinetics) at N terminal Nluc tagged FFA1; conditions: Nluc-FFA1; for Kd: read-out: Kd, saturation BRET binding
# T1 construct: expressed in transfected cells
# T1 sequence (O14842 whole entry): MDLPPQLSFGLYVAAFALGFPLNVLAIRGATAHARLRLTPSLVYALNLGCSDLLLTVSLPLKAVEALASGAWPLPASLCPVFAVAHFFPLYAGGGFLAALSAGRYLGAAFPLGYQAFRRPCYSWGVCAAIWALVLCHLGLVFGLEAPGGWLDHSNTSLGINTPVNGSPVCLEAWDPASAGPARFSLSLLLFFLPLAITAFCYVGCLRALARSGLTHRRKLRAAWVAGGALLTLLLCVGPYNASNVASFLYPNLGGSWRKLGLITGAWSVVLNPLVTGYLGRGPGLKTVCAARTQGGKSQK
# Procedure: (§1) Nluc-FFA1 or FFA1-Nluc Flp-In T-REx 293 cells were plated at 50,000 cells per well in poly-D-lysine coated white 96-well plates. Cells were cultured for 24 h in the plate before medium was replaced with medium containing 100 ng/mL of doxycycline to induce receptor expression. After culturing for a further 24 h, medium was removed, cells were washed with HBSS and incubated in HBSS for 30 min. To start the assay, NanoGlo substrate (Promega, N1110) was added to the cells at a 1:800 final dilution and incubated for 10 min at 37 °C. For endpoint assays, including both saturation and competition binding, test ligands were then added, including both fluorescent and unlabelled competing ligands as indicated, and plates incubated for a further 5 min at 37 °C. NanoBRET was then quantified in a CLARIOstar microplate reader (BMG Labtech) by measuring luminescent emission with the monochrometer set for the Nluc donor at 450–60 nm, and acceptor luminescent emission 540–60 nm (NBD), 600–80 nm (Cy3.5) or 690–100 nm (SulfoCy5), depending on which fluorophore was being tested. The acceptor/donor BRET ratio was then taken as a measure of fluorophore binding. For kinetic on then off NanoBRET experiments plates were washed the same way and substrate was added to the same concentration. However, 10 min after substrate was added plates were inserted into the CLARIOstar microplate reader set to 25 °C to take repeated measurements of luminescent emission for both the donor and the acceptor fluorophore being used. After 5 min of background measurements, the indicated concentration of fluorescent ligand was added using the plate reader injector and luminescent emission was monitored for ~10 min before the reader was paused to manually add a high concentration of appropriate competing ligand to initiate dissociation. The plate was returned to the reader and luminescence measurements were continued for a further 30 min to monitor dissociation of the fluorescent ligand. For kinetic experiments using multiple concentrations of fluorescent ligand, cells were placed in the plate reader immediately after the addition of Nano-Glo substrate and luminescent measurements were taken. After 5 min, the reader was paused to add the indicated concentrations of fluorescent ligand, before measurements were continued. To set non-specific binding for kinetic experiments, the indicated competing ligand was added 5 min before the addition of the fluorescent ligand.
# FFA1 = FFA1 (Homo sapiens, UniProt O14842); assay: Ca2+ mobilisation (Fura2) in Flp-In T-REx 293 cells expressing Nluc-FFA1, FFA1-Nluc or untagged FFA1; assay type: cell-based; design: expressed in transfected cells
# Chain of FFA1 (O14842 whole entry): as above
# Procedure: Nluc-FFA1, FFA1-Nluc or untagged FFA1 Flp-In T-REx 293 cells were plated at 50,000 cells per well in poly-D-lysine coated black clear bottom 96-well plates. Cells were then cultured for 24 h until reaching confluency before culture medium was replaced with medium containing 100 ng/mL of doxycycline to induce receptor expression. Cells were cultured for a further 24 h before the assay. On the day of the assay culture medium was removed and replaced with medium containing 3 μM Fura2-AM Ca^2+ dye. […] Fura2 fluorescent emission at 520 nm following excitation with each of 340 and 380 nm was measured in regular intervals both before and after adding test compounds for a total of 90 s per well. Calcium responses were determined by taking the peak 340/380 ratio after first subtracting the ratios obtained prior to addition of test compound.
# FFA1-Nluc = FFA1-Nluc (Homo sapiens, UniProt O14842); assay: NanoBRET binding (saturation, kinetics) at C terminal Nluc tagged FFA1; design: expressed in transfected cells; conditions: FFA1-Nluc, 95% confidence interval in parentheses; for Kd: read-out: Kd, saturation BRET binding; for BMax, saturation BRET binding: specific BRET
# Chain of FFA1-Nluc (O14842 whole entry): as above
# Procedure: as §1
# Nluc-FFA1 [2] = target: T1, Nluc-FFA1; assay: DISCo-BRET with TUG-2591 and TUG-2597 at N terminal Nluc tagged FFA1; assay type: binding; conditions: Figure 3F, 10 nM, technical duplicate
# Procedure: Nluc-FFA1 or FFA1-Nluc Flp-In T-REx 293 cells were plated at 50,000 cells per well in poly-D-lysine coated white 96-well plates. Cells were cultured for 24 h in the plate before medium was replaced with medium containing 100 ng/mL of doxycycline to induce receptor expression. After culturing for a further 24 h, culture medium was removed, cells washed with HBSS and incubated in HBSS for 30 min. For all DISCo-BRET formats Nano-Glo substrate was then added at a 1:800 final dilution and cells incubated for 10 min. Following substrate addition experimental set up different among the three formats: endpoint, spectra scan, and kinetics.
# For endpoint experiments all fluorescent and unlabelled ligands were added to the cells and incubated for 5 min at 37 °C. Luminescent emission was then measured using a CLARIOstar microplate reader with monochromator set at 450–60 nm (Nluc), 540−60 nm (NBD) and 690–100 nm (SulfoCy5). BRET ratios were then calculated as either SulfoCy5 emission divided by NBD emission, SulfoCy5 emission divided by Nluc emission, or NBD emission divided by Nluc emission.
# For spectra scan experiments all indicated fluorescent and unlabelled ligands were added to the cells and cells incubated for 5 min at 37 °C. Luminescence emissions were then measured from each well of the plate from 440 nm – 740 nm with a 5 nm resolution using a CLARIOstar microplate. […]
# [3] = 95% confidence interval in parentheses
# [4] = log[Ligand] -5.5, single technical replicates
# [5] = log[Ligand] -6, single technical replicates
# [6] = log[Ligand] -6.5, single technical replicates
# [7] = log[Ligand] -7, single technical replicates
# [8] = log[Ligand] -8, single technical replicates
Kd (Nluc-FFA1 [1]; [3]),Kd (FFA1-Nluc),"BMax, saturation BRET binding (FFA1-Nluc)",SMILES,Ca2+ Response as a % of T360 Response (FFA1; [4]),Ca2+ Response as a % of T360 Response (FFA1; [5]),Ca2+ Response as a % of T360 Response (FFA1; [6]),Ca2+ Response as a % of T360 Response (FFA1; [7]),Ca2+ Response as a % of T360 Response (FFA1; [8]),other results
520 nM,240 nM,0.022 (0.015−0.038),Cc1cc(OCCOCCNC(=O)CCCCCN2\C(=C/C=C/C=C/C3=[N+](C)c4ccc(S(=O)(=O)[O-])cc4C3(C)C)C(C)(C)c3ccccc32)ccc1-c1cccc(COc2ccc(CCC(=O)O)c(F)c2)c1 [TUG-2355],47.56% and 39.50% and 44.99% and 26.68% and 35.66% and 31.10% and 60.09% and 62.76% and 60.18%,6.20% and 5.86% and 4.09% and -1.05% and -0.0134% and -0.48% and -1.46% and 7.50% and -1.37%,0.81% and -1.43% and -1.40% and -2.16% and -1.38% and 1.40% and -3.04% and 3.51% and -1.19%,1.12% and 1.72% and 2.65% and -2.38% and -2.12% and 0.39% and -2.69% and 2.22% and 0.50%,-2.32% and 0.08% and 1.34% and 0.25% and -0.22% and -1.88% and -1.89% and 3.89% and -2.52%,"Specific BRET (Nluc-FFA1 [1]; [TUG-2355] 1000 nM, technical triplicates): 0.0476 and 0.0570 and 0.0671 and 0.0472 and 0.0443 and 0.0544; BMax, saturation BRET binding (Nluc-FFA1 [1]; specific BRET, 95% confidence interval in parentheses): 0.083 (0.060−0.14); pEC50 (FFA1; Ca2+ data, mean±SEM, NR = No response): 5.43±0.06; Ca2+ Response as a % of T360 Response (FFA1; FFA1-Nluc cells, log[ligand] -7, technical replicates): -1.03% and 4.29% and 0.96%; Ca2+ Response as a % of T360 Response (FFA1; FFA1-Nluc cells, log[ligand] -7.5, technical replicates): 1.35% and 1.54% and 1.46% and 0.43% and 0.51% and 0.58%; Ca2+ Response as a % of T360 Response (FFA1; FFA1-Nluc, log[TUG-2355] -5, technical triplicates): 62.07 % of T360 Response and 53.90 % of T360 Response and 49.62 % of T360 Response and 44.94 % of T360 Response and 53.23 % of T360 Response and 56.24 % of T360 Response and 74.69 % of T360 Response and 72.06 % of T360 Response; Ca2+ Response as a % of T360 Response (FFA1; Nluc-FFA1, log[TUG-2355] -5, technical triplicates): 78.72 % of T360 Response and 80.47 % of T360 Response and 78.90 % of T360 Response and 53.23 % of T360 Response and 56.24 % of T360 Response and 77.92 % of T360 Response and 57.96 % of T360 Response and 82.25 % of T360 Response; Ca2+ Response as a % of T360 Response (FFA1; Nluc-FFA1 cells, log[ligand] -7, technical replicates): 1.27% and 0.43% and 0.51% and 0.58% and 0.96% and 2.49%; Ca2+ Response as a % of T360 Response (FFA1; Nluc-FFA1 cells, log[ligand] -7.5, technical replicates): 2.49% (2×) and 2.03%; Ca2+ Response as a % of T360 Response (FFA1; Nluc-FFA1 cells, log[ligand] -8, technical replicates): 0.05% and 1.00% and 0.97% and 1.13%; Ca2+ Response as a % of T360 Response (FFA1; log[Ligand] -4.5, single technical replicates): 81.14% and 82.71% and 91.68% and 50.63% and 60.58% and 55.59% and 78.02% and 80.44% and 71.73%; Ca2+ Response as a % of T360 Response (FFA1; log[Ligand] -5, single technical replicates): 78.72% and 80.47% and 78.90% and 53.23% and 56.24% and 77.92% and 57.96% and 82.25%; EMax (FFA1; percentage of response to 10 μM T360, NR = No response): 87±10%"
–,–,–,Cc1cc(OCCCNC(=O)CCCN2\C(=C/C=C/C=C/C3=[N+](C)c4ccc(S(=O)(=O)[O-])cc4C3(C)C)C(C)(C)c3ccccc32)ccc1-c1cccc(COc2ccc(CCC(=O)O)c(F)c2)c1 [TUG-TUG-2591],–,–,–,–,–,"Area under the curve from luminecent emission, Total (Nluc-FFA1 [2]): 0.1968 and 0.1494 and 0.1776 and 0.1635 and 0.1742 and 0.2754"
200 nM,25 nM,0.007 (0.005−0.01),Cc1cc(OCCOCCNC(=O)CCCCC[N+]2=C(/C=C/C=C3/N(C)c4ccc5ccccc5c4C3(C)C)C(C)(C)c3c2ccc2ccccc32)ccc1-c1cccc(COc2ccc(CCC(=O)O)c(F)c2)c1.O=C([O-])C(F)(F)F [TUG-2287],17.83% and 27.69% and 20.05% and -0.41% and 1.34% and 0.65%,5.00% and 8.24% and 2.11% and -0.20% and 0.45% and 0.71%,1.48% and 8.34% and 1.53% and -0.18% and -0.52% and -0.47%,0.96% and 2.49% and 1.27% and 0.43% and 0.51% and 0.58%,2.24% and 3.57% and 0.05% and 1.00% and 0.97% and 1.13%,"activity in Ca2+ assays (FFA1; in words): no measurable activity; Ca2+ Response as a % of T360 Response (FFA1; log[Ligand] -9, single technical replicates): 1.37% and 5.16% and 0.91% and -0.52% and -0.36% and 0.88%"
